Test results from patent publication US20220000964A1, “Compositions and Methods for Regulating Homeostasis of Chondrocytes, Extracellular Matrix, Articular Cartilage, and Phenotype of Arthritis” (Unigen, Inc., priority 2020, published 2022).
Read-outs that look alike come from different tables or passages of the source.

Assays:
Assay type in all cases: in vivo, rat
MIA-induced OA rats [1] = experiment: MIA-induced OA rats, histopathology (modified Mankin); settings: 10 mg/kg
Method: (§1) Treatment started a week before MIA injection. Animals were randomized into five groups of 10 rats per group as G1=normal, G2=vehicle (0.5% CMC-Na solution), G3=Diclofenac (10 mg/kg, Lot #W08B043, Ward Hill, Mass.), G4=AMK (100 mg/kg) and G5=AMK (300 mg/kg), were orally gavaged with respective treatment. On the induction day, isoflurane (Lot #B66H15A, Piramal Enterprise Ltd. Andhra Pradesh, India) anesthetized rats were injected with 0.8 mg of MIA (Lot #A0352046, Acros Organics, New Jersey, USA) in 50 μL saline solution into the intra-articular pocket of left femorotibial (knee) joint using 26 G needle an hour after treatment. Normal control rats were injected with an equal volume of saline. Paw withdrawal thresholds as a result of constant pressure applied to the affected joint as a measure of pain sensitivity were taken once a week using Randall-Salitto Anesthesiometer (IITC, USA) and treatment lasted for 6 weeks. Body weights were measured once a week to calculate the respective weekly dosage of each group. Urine was collected at the end of study using metabolic cages. Blood samples were collected to isolate serum for biomarker analysis. At necropsy, animals were asphyxiated with CO2 and the femorotibial joint was carefully dissected out, fixed in 10% buffered formalin and sent to Nationwide Histology (Veradale, Wash., USA) for further histopathology analysis. The fixed specimens were then decalcified with Calci-Clear Rapid for 1 and a half days and embedded in paraffin. Standardized […] serial sections were obtained at the medial and lateral mid-condylar level in the sagittal plane and were stained with hematoxylin and eosin (HE) and Safranin O-fast green to enable evaluation of proteoglycan content. A modified Mankin system (Mankin et al., 1981) was used to score structural and cellular alterations of articular components as indications of disease progression and/or treatment efficacy. The histological analysis was conducted by a certified Pathologist at Nationwide Histology.

Sprague Dawley rats = experiment: Hot plate test, topical application, paw withdrawal latency; settings: dose (%): Ibuprofen 5, Capsaicin 0.5, Diclofenac 1, others 5
Description: Repeated application of anti-inflammatory compounds or extracts topically at the site of thermal contact (noxious stimulus) may cause desensitization of the peripheral afferent pain receptors to produce a delay in response time. A longer change in reaction time could be interpreted as an anti-nociceptive effect of the applied compound. To evaluate whether prepared plant extracts and compositions could provide anti-nociceptive activity, rats received orally-active anti-inflammatory extracts formulated in 2% Aloe vera gel at 5% concentration topically on their hind paws. The applied preparations on each paw were massaged at least 60 times in a circular motion into the skin until the applied content appeared visually absorbed. The procedure was repeated 3 times, every 30 minutes, before placing the animals on a preheated hot plate set to 53° C. The paw withdrawal latency was calculated as the time elapsed from the initial placement of the rat onto the hotplate to the withdrawal (or licking or shaking) of the hind paw in response to the thermal stimulus. Animals were immediately removed when this response was observed.
The anti-pain activity of medicinal plant extracts was tested on a hot plate set at 53° C. Test materials at 5% concentrations were topically applied at 20 μl/paw to the hind paws of both right and left paws of Sprague Dawley rats (n=10 per group). Applications of these extracts were carried out every 30 minutes for a total of 90 minutes. Within these 90 minutes, rats received a total of 60 μl/paw of the test article per rat. At 5% concentration, each rat received 3 mg/paw of the test articles. Due to the solubility characteristics of the compounds, two types of vehicles, V1=Dimethyl sulfoxide (DMSO)+propylene glycol (PG)+Aloe (2%), and V2=DMSO+OIL+PG, were used. Percent changes and P-values for statistical significance were determined using respective vehicles for each test material. The vehicle used for each material has been indicated in the parenthesis next to the test material. […] These increases in anti-pain activity were statistically significant. […] This percent change was statistically significant when compared to its respective vehicle.

MIA-induced OA rats [2] = experiment: MIA-induced OA rats, pain sensitivity (paw withdrawal threshold, Randall-Salitto); settings: 10 mg/kg oral; for inhibition at 10 mg/kg: Rattus norvegicus, po, read-out: Knee compression sensitivity, percent inhibition against vehicle treated MIA rats
Description: The MIA-induced OA disease model in rats is a standardized model most frequently used to mimic human OA (Lee et al., 2014). The model involves inoculation of MIA into a femorotibial joint pocket that induces pain responses in the ipsilateral limb accompanied by progressive cartilage degradation. Intra-articular injection of MIA disrupts chondrocyte glycolysis by inhibiting […] and results in chondrocyte death, neovascularization, subchondral bone necrosis and collapse, as well as inflammation (Guzman et al., 2003). These phenotypic characteristics make the model very attractive to evaluate compounds for their anti-inflammatory, analgesic and/or potential disease-modifying activities as it shares similar disease pathology to the human OA. As a result, we selected this validated in vivo model to investigate the effect of AMK in mitigating pain sensitivity, regulating the phenotype of joint tissue and maintaining articular structural integrity after being administered orally for 6 weeks.
as §1

IL-6 = experiment: MIA-induced OA rats, serum IL-6; settings: 10 mg/kg
Method: Treatment started a week before MIA injection. […] On the induction day, isoflurane (Lot #B66H15A, Piramal Enterprise Ltd. Andhra Pradesh, India) anesthetized rats were injected with 0.8 mg of MIA (Lot #A0352046, Acros Organics, New Jersey, USA) in 50 μL saline solution into the intra-articular pocket of left femorotibial (knee) joint using 26 G needle an hour after treatment. Normal control rats were injected with an equal volume of saline. […] Body weights were measured once a week to calculate the respective weekly dosage of each group. […] The fixed specimens were then decalcified with Calci-Clear Rapid for 1 and a half days and embedded in paraffin. […] The histological analysis was conducted by a certified Pathologist at Nationwide Histology.

SMILES: O=C(O)Cc1ccccc1Nc1c(Cl)cccc1Cl [Diclofenac]
- inhibition in catabolic inflammation and infiltration of inflammatory cells (MIA-induced OA rats [1]; MIA rats): 42.8%
- reduction in matrix GAG loss (MIA-induced OA rats [1]; MIA rats): 34.6%
- reduction of overall structural abnormalities (MIA-induced OA rats [1]; MIA rats): 41.1%
- Bone Erosion (Mean ± SE) (MIA-induced OA rats [1]; modified Mankin score): 3.08 ± 0.50
- Cartilage destruction (Mean ± SE) (MIA-induced OA rats [1]; modified Mankin score): 4.00 ± 0.76
- GAG Loss (Mean ± SE) (MIA-induced OA rats [1]; modified Mankin score): 3.08 ± 0.57
- Inflammation (Mean ± SE) (MIA-induced OA rats [1]; modified Mankin score): 1.31 ± 0.22
- Bone Erosion, reduction (value in parenthesis) (MIA-induced OA rats [1]; vs MIA+ vehicle): (40.8) %
- Cartilage destruction, reduction (value in parenthesis) (MIA-induced OA rats [1]; vs MIA+ vehicle): (41.10%
- GAG Loss, reduction (value in parenthesis) (MIA-induced OA rats [1]; vs MIA+ vehicle): (34.6) %
- Inflammation, reduction (value in parenthesis) (MIA-induced OA rats [1]; vs MIA+ vehicle): (42.8) %
- Paw withdrawal threshold (latency) Mean ± SD (Sprague Dawley rats; hot plate 53° C., topical, vehicle V1 (DMSO+PG+Aloe 2%), in s (unit assumed)): 6.93 ± 1.50
- % Change (Sprague Dawley rats; vs vehicle V1, negative = increased paw withdrawal latency): 2.8%
- inhibition at 10 mg/kg (MIA-induced OA rats [2]; Wk-0): 0.3%
- inhibition at 10 mg/kg (MIA-induced OA rats [2]; Wk-1): 19.7%
- inhibition at 10 mg/kg (MIA-induced OA rats [2]; Wk-2): 24.1%
- inhibition at 10 mg/kg (MIA-induced OA rats [2]; Wk-3): 28.3%
- inhibition at 10 mg/kg (MIA-induced OA rats [2]; Wk-4): 30.8%
- inhibition at 10 mg/kg (MIA-induced OA rats [2]; wk-5): 31.1%
- Knee compression sensitivity (Mean ± SD) (MIA-induced OA rats [2]; Wk-0): 243.1 ± 2.4
- Knee compression sensitivity (Mean ± SD) (MIA-induced OA rats [2]; Wk-1): 190.9 ± 2.3
- Knee compression sensitivity (Mean ± SD) (MIA-induced OA rats [2]; Wk-2): 190.5 ± 2.6
- Knee compression sensitivity (Mean ± SD) (MIA-induced OA rats [2]; Wk-3): 183.8 ± 2.3
- Knee compression sensitivity (Mean ± SD) (MIA-induced OA rats [2]; Wk-4): 183.3 ± 1.7
- Knee compression sensitivity (Mean ± SD) (MIA-induced OA rats [2]; wk-5): 182.0 ± 1.1
- IL-6 (IL-6): 114.2 ± 5.5 pg/mL
